As a reminder, the Ki is the equilibrium dissociation constant of an inhibitor or competing ligand from its target. One may read the IC50 as the point on the concentration scale where inhibition reaches its midpoint.

From patent publication EP1191024A1, “Thiadiazines and their use as inhibitors of metalloproteinases” (Tschesche, Harald, priority 2000, dated 2002) come the findings set out here.

The structures appear in SMILES notation.

Assay [1] addresses MMPs. Description: Ki determination in microfluorometric assay (Cheng-Prusoff, enzyme not specified). The class given is biochemical, human. Conditions: enzyme not given. The procedure:
(§1) The enzymatic activity was measured using a modified version of a resonance energy transfer fluorogenic assay as described^[26]. Progress curves were monitored by following the increase in fluorescence at 393 nm (λex = 328 nm), induced by the cleavage of the (7-methoxycoumarin-4-yl)acetyl-Pro-Leu-Gly-Leu-(3-[2,4-dinitro-phenyl]-L-2,3-diamino-propionyl)-Ala-Arg-NH2 (Mca-Pro-Leu-Gly-Leu-Dpa-Ala-Arg-NH2) fluorogenic substrate by MMPs. The fluorescent MCA-group is quenched by resonance energy transfer to the 2,4-dinitrophenyl group. Matrix metalloproteinases cleave this substrate at the Gly-Leu bond. Cleavage results in the loss of energy transfer and a large increase in fluorescence of the MCA group. This substrate is commercially available from Bachem, Switzerland.
Enzyme inhibition assays were carried out in MRB which consisted of 50 mM HEPES/NaOH, pH 7.0, 10 mM CaCl2 and 0,02% (w/v) PEG 8000 at 25°C. […] After preincubation for 30 min at 25°C the reaction was started by addition of substrate and the plate was read on a SpectraFluor Plus (Tecan, Germany) plate reader with excitation at 330 nm and emission at 405 nm with the gain set to 150. […] The experiment was further controlled for background fluorescence of the substrate, for fluorescence of fully cleaved substrate and for fluorescence quenching or augmentation from solutions containing the test compounds. […]

In assay [2] the target is cdMMP-13 (Homo sapiens, UniProt P45452). Nature of the assay: MMP microfluorometric profiling assay (fluorogenic Mca-peptide substrate). In kind it is biochemical. As to conditions: read-out: cdMMP-13 IC50. The procedure: (§2) The tested MMP enzymes were prepared more specifically in the laboratories of the applicants, with the exception of MMP-1. MMP-1 from human rheumatoid synovial fibroblasts was purchased from Calbiochem-Novabiochem Corporation, LaJolla. Preparation of the recombinant catalytic domain of human Gelatinase A (cdMMP-2): The catalytic domain of Pro-Gelatinase A was prepared using an E. coli expression system according to the method described by Kröger et al^[19]. The proenzyme was activated with 0.5 mM APMA at 37°C prior to use in the assay. Preparation of the recombinant catalytic domain of human neutrophile Collagenase (cdMMP-8^Met80): The enzyme was expressed in E. coli as an active variant by the method of Kleine et al^[20]. Preparation of PMNL-Gelatinase (MMP-9): Latent PMNL-pro-Gelatinase was prepared from human plasma buffy coat as described by Tschesche et al^[21]. PMNL-pro-Gelatinase was activated prior to use by incubation with Trypsin at 37°C for 10 min. Inactivation of Trypsin was accomplished with TKI. Preparation of the recombinant catalytic domain of human Macrophage Elastase (cdMMP-12): The catalytic domain of MMP-12 was expressed in E. coli. The overexpressed protein was isolated as inclusion bodies and the renatured protein was purified by affinity chromatography with a hydroxamate inhibitor coupled column as described^[22]. Preparation of the recombinant catalytic domain of human Collagenase-3 (cdMMP-13): Human pro-cdMMP-13 was prepared using an E. coli expression system according to the method described^[23]. The isolated pro-cdMMP-13 was activated prior to use by incubation with 5 mM HgCl2 for 2 h at 37°C. Preparation of the recombinant catalytic domain of Membrane-Type-1 MMP (cdMMP-14): The catalytic domain of MMP-14 was expressed in E. coli and was activated by autocatalysis^[24]. Preparation of the recombinant human ectodomain of Membrane-Type-1 MMP (ΔTM-MMP-14): The ectodomain of MMP-14 was expressed in Pichia Pastoris by the method of Roderfeld et al. and activated by yeast proteases (Furin-like-proteases) during maturation^[25].
as §1
(§3) Enzyme inhibition assays were carried out in MRB which consisted of 50 mM HEPES/NaOH, pH 7.0, 10 mM CaCl2 and 0,02% (w/v) PEG 8000 at 25°C. MMP microfluorometric profiling assay was done in white U-bottomed 96-well plates (Microfluor 1 White, Dynex, USA) with a final substrate concentration of 6 µM MCA-peptide, approximately 0.3 to 5 nM MMP with variable inhibitor concentrations and 2% DMSO vehicle. From a 1.5 mM stock (100% DMSO) the inhibitors were serially diluted with MRB to 15, 10, 5, 3, 1, 0.6, 0.3, 0.1, 0.05, 0.01 and 0.005 µM final assay concentration. Column 1, rows A through H, contained only DMSO for the "enzyme-only" wells in the assay. After preincubation for 30 min at 25°C the reaction was started by addition of substrate and the plate was read on a SpectraFluor Plus (Tecan, Germany) plate reader with excitation at 330 nm and emission at 405 nm with the gain set to 150. Each measurement was done in triplicate to ensure statistically significant results. […]

Assay [3] deals with T1, MMP-9 (Homo sapiens, UniProt P14780).
T1 construct: from tissue; host or cells: human plasma buffy coat (PMNL)
Described as above. In kind it is biochemical. As to the method: as §2, §1, §3

Assay [4] concerns the target T2, cdMMP-12 (Homo sapiens, UniProt P39900).
T2 construct: The catalytic domain of MMP-12 was expressed in E. coli; made in house; host or cells: E. coli
The description is as above. In kind it is biochemical. The procedure: as §2, §1, §3

Assay [5] addresses T3, cdMMP-14 (Homo sapiens, UniProt P50281).
T3 construct: made in house; host or cells: E. coli
The description is as above. In kind it is biochemical. The procedure:
as §2, §1, §3

In assay [6] the target is T4, MMP-1 (Homo sapiens, UniProt P03956).
T4 construct: MMP-1 from human rheumatoid synovial fibroblasts was purchased; purchased Calbiochem-Novabiochem Corporation, LaJolla; host or cells: human rheumatoid synovial fibroblasts
T4 sequence (P03956 100-469): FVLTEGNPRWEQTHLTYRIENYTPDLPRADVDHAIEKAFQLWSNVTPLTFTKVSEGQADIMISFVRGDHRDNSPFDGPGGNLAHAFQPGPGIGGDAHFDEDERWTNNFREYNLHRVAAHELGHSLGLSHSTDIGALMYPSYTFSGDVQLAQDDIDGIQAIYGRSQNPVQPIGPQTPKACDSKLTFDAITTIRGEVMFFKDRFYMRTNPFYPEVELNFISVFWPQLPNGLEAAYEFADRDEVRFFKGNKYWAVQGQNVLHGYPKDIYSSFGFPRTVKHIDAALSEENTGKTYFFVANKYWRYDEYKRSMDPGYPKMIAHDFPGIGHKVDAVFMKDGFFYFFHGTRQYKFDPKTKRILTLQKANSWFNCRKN
The description is as above. In kind it is biochemical. The procedure: as §2, §1, §3

Assay [7] has as its target cdMMP-2 (Homo sapiens, UniProt P08253). Described as above. The class given is biochemical. Conditions: read-out: cdMMP-2 IC50. As to the method:
The tested MMP enzymes were prepared more specifically in the laboratories of the applicants, with the exception of MMP-1. MMP-1 from human rheumatoid synovial fibroblasts was purchased from Calbiochem-Novabiochem Corporation, LaJolla. Preparation of the recombinant catalytic domain of human Gelatinase A (cdMMP-2): The catalytic domain of Pro-Gelatinase A was prepared using an E. coli expression system according to the method described by Kröger et al^[19]. The proenzyme was activated with 0.5 mM APMA at 37°C prior to use in the assay. […] Preparation of PMNL-Gelatinase (MMP-9): Latent PMNL-pro-Gelatinase was prepared from human plasma buffy coat as described by Tschesche et al^[21]. PMNL-pro-Gelatinase was activated prior to use by incubation with Trypsin at 37°C for 10 min. Inactivation of Trypsin was accomplished with TKI. […] The overexpressed protein was isolated as inclusion bodies and the renatured protein was purified by affinity chromatography with a hydroxamate inhibitor coupled column as described^[22]. Preparation of the recombinant catalytic domain of human Collagenase-3 (cdMMP-13): Human pro-cdMMP-13 was prepared using an E. coli expression system according to the method described^[23]. The isolated pro-cdMMP-13 was activated prior to use by incubation with 5 mM HgCl2 for 2 h at 37°C.
as §1
Enzyme inhibition assays were carried out in MRB which consisted of 50 mM HEPES/NaOH, pH 7.0, 10 mM CaCl2 and 0,02% (w/v) PEG 8000 at 25°C. MMP microfluorometric profiling assay was done in white U-bottomed 96-well plates (Microfluor 1 White, Dynex, USA) with a final substrate concentration of 6 µM MCA-peptide, approximately 0.3 to 5 nM MMP with variable inhibitor concentrations and 2% DMSO vehicle. From a 1.5 mM stock (100% DMSO) the inhibitors were serially diluted with MRB to 15, 10, 5, 3, 1, 0.6, 0.3, 0.1, 0.05, 0.01 and 0.005 µM final assay concentration. Column 1, rows A through H, contained only DMSO for the "enzyme-only" wells in the assay. After preincubation for 30 min at 25°C the reaction was started by addition of substrate and the plate was read on a SpectraFluor Plus (Tecan, Germany) plate reader with excitation at 330 nm and emission at 405 nm with the gain set to 150. Each measurement was done in triplicate to ensure statistically significant results. The experiment was further controlled for background fluorescence of the substrate, for fluorescence of fully cleaved substrate and for fluorescence quenching or augmentation from solutions containing the test compounds.
Datapoints from eight different MMPs generated on the SpectraFluor Plus were directly visualized on a master Excel spreadsheet. The response of inhibition was determinated for each inhibitor concentration by comparing the amount of hydrolysis (fluorescence units generated over 30 minutes of hydrolysis) of wells containing compound with the "enzyme-only" wells in column 1. With the program GraFit (Erithacus Software Limited) a 4 parameter logistic fit to the dose-response data was used to calculate IC50 values for each compound.

T2 sequence (P39900 106-263 limits assumed): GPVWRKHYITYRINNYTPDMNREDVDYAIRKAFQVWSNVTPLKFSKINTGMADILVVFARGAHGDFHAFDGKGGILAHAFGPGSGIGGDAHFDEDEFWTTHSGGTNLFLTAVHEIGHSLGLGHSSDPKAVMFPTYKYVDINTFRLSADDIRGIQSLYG
T1 sequence (P14780 107-707 limits assumed): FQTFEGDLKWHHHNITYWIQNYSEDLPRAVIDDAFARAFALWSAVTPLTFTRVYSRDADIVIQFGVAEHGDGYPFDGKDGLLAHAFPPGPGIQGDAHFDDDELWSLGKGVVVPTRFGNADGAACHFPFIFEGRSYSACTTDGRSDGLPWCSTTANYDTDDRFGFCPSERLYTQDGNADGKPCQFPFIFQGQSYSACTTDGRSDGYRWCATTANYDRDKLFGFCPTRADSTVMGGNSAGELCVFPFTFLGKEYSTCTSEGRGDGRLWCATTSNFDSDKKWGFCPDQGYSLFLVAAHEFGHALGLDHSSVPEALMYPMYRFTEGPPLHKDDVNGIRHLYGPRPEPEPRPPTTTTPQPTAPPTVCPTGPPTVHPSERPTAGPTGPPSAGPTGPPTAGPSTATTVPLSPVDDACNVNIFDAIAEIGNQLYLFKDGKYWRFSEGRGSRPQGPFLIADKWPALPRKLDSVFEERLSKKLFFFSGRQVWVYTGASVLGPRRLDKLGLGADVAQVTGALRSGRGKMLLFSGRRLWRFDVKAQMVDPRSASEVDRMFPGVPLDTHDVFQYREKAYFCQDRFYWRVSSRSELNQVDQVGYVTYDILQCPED
Chain of cdMMP-2 (P08253 110-446): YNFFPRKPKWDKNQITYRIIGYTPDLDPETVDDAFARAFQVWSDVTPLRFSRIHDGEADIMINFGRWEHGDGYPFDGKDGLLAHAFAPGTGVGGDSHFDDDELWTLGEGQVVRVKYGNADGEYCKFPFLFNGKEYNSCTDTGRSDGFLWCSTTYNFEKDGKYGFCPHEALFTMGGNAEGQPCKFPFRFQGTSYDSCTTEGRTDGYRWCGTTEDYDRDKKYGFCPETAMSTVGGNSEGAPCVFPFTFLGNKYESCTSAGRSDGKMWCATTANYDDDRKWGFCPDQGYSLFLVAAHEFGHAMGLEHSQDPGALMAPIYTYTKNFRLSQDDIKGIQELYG

With `CC(C)(NS(=O)(=O)c1ccccc1)C(=O)NC1=NN=C(c2ccc(Cl)cc2)CS1` [Example 20, N-[5-(4-Chlorophenyl)-6H-1,3,4-thiadiazin-2-yl]-2-methyl-2-[(phenylsulfonyl)-amino]propanamide], in assay [1], the Ki is ~100 nM.
Regarding `C[C@H](NS(=O)(=O)c1ccccc1)C(=O)NC1=NN=C(c2ccc(F)cc2)CS1` [Example 13, (2S)-N-[5-(4-Fluorophenyl)-6H-1,3,4-thiadiazin-2-yl]-2-[(phenylsulfonyl)amino]-propanamide], the half-maximal inhibitory concentration (IC50) in assay [2] turned out to be 1170 nM; in assay [3], 684 nM; in assay [4], 338 nM; in assay [5], 839 nM; in assay [6], 500 nM; in assay [7], 743 nM.
